Earlier results in PMC3518266 (Chemistry & biology, 2010).

Biological target: hevamine
Conditions: competitive inhibition of hevamine; ref Vaaje-Kolstad et al., 2004; cited from earlier work

Structure (SMILES): CC(=O)N[C@H]1[C@H](O[C@H]2[C@@H](O)[C@@H](NC(C)=O)[C@H](O[C@H]3[C@H](O)[C@H]4N=C(N(C)C)O[C@H]4[C@@H]3CO)O[C@@H]2CO)O[C@H](CO)[C@@H](O)[C@H]1O [allosamidin]
- Ki: 3.1 µM
